Experimental findings from paper PMC12888869, “A short antimicrobial peptides family demonstrates efficacy to infection via a multimodal mechanism of action” (Antimicrobial Agents and Chemotherapy, 2025) are described below.

Where two headings read alike, the source gives them in different places. No end group written: not given here.

The test system of assay [1] is S. aureus, E. coli, A. baumannii, MDR-E. coli, MDR-A. baumannii. It counts as cell-based. The procedure: (§1) Two MDR bacteria, MDR-E. coli (LZ-7, drug resistance: compound sulfamethoxazole, ampicillin, gentamicin, ciprofloxacin, levofloxacin) and MDR-A. baumannii (AB-29, drug resistance: 11 kinds of antibiotics including cephalosporins), along with three pathogenic bacteria, E. coli (ATCC 25922), S. aureus (ATCC 6538), and A. baumannii (309-14) were included in the study. A single colony of each bacterium was cultured in Luria-Bertani (LB) medium at 37°C and 180 rpm for 12–16 h until the logarithmic growth phase for use.
(§2) The MIC of the peptides against a range of bacteria was determined using the microbroth dilution method with slight modifications ([62]). In brief, the bacteria mentioned above were dispersed in the LB (10^5 CFU mL^−1) and were mixed with gradient concentrations (0.25 μM–16 μM) of SAMPs in the 96-well plate (n = 3). After incubation at 37°C for 16–18 h, the absorbance at 600 nm was measured using a microplate reader (Thermo Fisher Scientific, Multiskan MK3, China). The lowest peptide concentration with no absorbance increase was defined as the MICs. The bacterial solution in the 96-well plate was then transferred to solid LB medium to culture single colonies (n = 3), and the lowest peptide concentration at which almost no colonies survive (less than 0.01%) was defined as the MBCs.

The subject of the next assay is S. aureus (ATCC 6538). It counts as cell-based, Staphylococcus aureus. The procedure: as §1, §2
In the next assay the test system is MDR-A. baumannii (AB-29). Format: cell-based, Acinetobacter baumannii. On the procedure: as §1, §2
For a further assay, the system named is A. baumannii (309-14). Format: cell-based, Acinetobacter baumannii. On the procedure:
as §1, §2

A further assay has as its system E. coli. It counts as cell-based, Escherichia coli. Particulars: 12 h. The procedure:
as §2
(§3) Based on previous methods, stability was analyzed by monitoring the changes in the antimicrobial efficacy of SAMPs in the presence of salts and serum ([37], [38]). The SAMPs underwent incubation with physiological salts (150 mM NaCl, 4.5 mM KCl) or serum at 37°C for 12 h, followed by measurement of their MICs using the previously outlined method (n = 3).

For a further assay, the system named is S. aureus. It counts as cell-based, Staphylococcus aureus. Particulars: 12 h. The procedure:
as §2, §3

A further assay concerns E. coli (ATCC 25922). It counts as cell-based, Escherichia coli. On the procedure:
as §1, §2

The next assay concerns MDR-E. coli (LZ-7). Format: cell-based, Escherichia coli. The procedure:
as §1, §2

A further assay has as its system S. aureus and E. coli. Nature of the assay: Drug resistance assay (serial passage). It counts as cell-based. The conditions noted are these: Colistin E 4 μg mL−1, 30 days. The procedure: The evaluation of drug resistance in SAMPs was performed through MIC value detection ([74]). Resistance was defined as a greater than fourfold increase in the MIC from its initial value. S. aureus and E. coli grown in LB medium supplemented with 0.5 × MIC of each SAMP were repeated for 30 days, followed by determination of MIC values using the same methodology outlined above (n = 3). Meanwhile, Colistin E (4 μg mL^-1) was used as the control group to induce bacterial resistance in the same way.

In general, MBC refers to the smallest concentration meeting the test's criterion for killing. For orientation: MIC means the least concentration at which growth counts as inhibited. Low values mean greater potency, high ones weaker potency.

For the substance FLKLRLWKRLLWKLK-NH2 [KR], the “MIC, common pathogenic bacteria and MDR bacteria” value in assay [1] is 0.25 to 2 µM. Besides, the MBC in the assay with S. aureus (ATCC 6538) (ATCC 6538) came to 0.5 µM; in the assay with MDR-A. baumannii (AB-29) (MDR- (AB-29)), 0.25 µM; in the assay on A. baumannii (309-14) (309-14), 0.25 µM; in the assay on E. coli (ATCC 25922) (ATCC 25922) it was 0.5 µM; with MDR-E. coli (LZ-7) (MDR- (LZ-7)), 4 µM. Moreover, the MIC came out at 0.25 µM with S. aureus (ATCC 6538) (ATCC 6538); 0.25 µM against MDR-A. baumannii (AB-29) (MDR- (AB-29)); 0.25 µM in the assay on A. baumannii (309-14) (309-14); 0.25 µM in the assay with E. coli (ATCC 25922) (ATCC 25922); 1 µM against MDR-E. coli (LZ-7) (MDR- (LZ-7)). Further, the “MIC after treatment, KCl” value in the assay with E. coli and with S. aureus was 0.25 µM throughout. Further, the “MIC after treatment, NaCl” value with E. coli and in the assay on S. aureus was 0.25 µM in each case. In addition, the “MIC after treatment, Serum” value against E. coli and with S. aureus was 0.25 µM throughout.
On to FLKLRLWGKLLWKLK-NH2 [GK], for which the MBC against S. aureus (ATCC 6538) (ATCC 6538) is 2 µM; in the assay on MDR-A. baumannii (AB-29) (MDR- (AB-29)), 4 µM; with A. baumannii (309-14) (309-14), 4 µM; against E. coli (ATCC 25922) (ATCC 25922) it was 8 µM; against MDR-E. coli (LZ-7) (MDR- (LZ-7)), 16 µM. For the same substance, the MIC with S. aureus (ATCC 6538) (ATCC 6538) is 1 µM; against MDR-A. baumannii (AB-29) (MDR- (AB-29)), 1 µM; against A. baumannii (309-14) (309-14) it was 2 µM; against E. coli (ATCC 25922) (ATCC 25922) it was 2 µM; in the assay on MDR-E. coli (LZ-7) (MDR- (LZ-7)), 16 µM. For the same substance, the “MIC after treatment, KCl” value with E. coli is 2 µM; against S. aureus, 1 µM. In addition, the “MIC after treatment, NaCl” value against E. coli stood at 2 µM; with S. aureus, 1 µM. The “MIC after treatment, Serum” value came out at 2 µM in the assay with E. coli and 1 µM in the assay with S. aureus.
Take Colistin E [reference compound]: the MIC in the assay with S. aureus (ATCC 6538) (S. aureus, microbroth dilution in LB, 10^5 CFU mL−1, 37°C, 16–18 h, absorbance 600 nm, n = 3) was greater than 256 µM; with MDR-A. baumannii (AB-29) (MDR-A. baumannii, microbroth dilution in LB, 10^5 CFU mL−1, 37°C, 16–18 h, absorbance 600 nm, n = 3), 128 µM; in the assay with A. baumannii (309-14) (A. baumannii, microbroth dilution in LB, 10^5 CFU mL−1, 37°C, 16–18 h, absorbance 600 nm, n = 3), 32 µM; in the assay on E. coli (ATCC 25922) (E. coli, microbroth dilution in LB, 10^5 CFU mL−1, 37°C, 16–18 h, absorbance 600 nm, n = 3), 256 µM; in the assay with MDR-E. coli (LZ-7) (MDR-E. coli, microbroth dilution in LB, 10^5 CFU mL−1, 37°C, 16–18 h, absorbance 600 nm, n = 3), greater than 256 µM. Moreover, the “antimicrobial activity after resistance induction” value in the assay with S. aureus and E. coli is “significant decrease in the antimicrobial activity”.
Turning to FLKLRLWGRLLWKLK-NH2 [GR], the MBC came out at 2 µM against S. aureus (ATCC 6538) (ATCC 6538); 2 µM in the assay on MDR-A. baumannii (AB-29) (MDR- (AB-29)); 2 µM in the assay with A. baumannii (309-14) (309-14); 8 µM in the assay on E. coli (ATCC 25922) (ATCC 25922); 16 µM in the assay on MDR-E. coli (LZ-7) (MDR- (LZ-7)). For the same substance, the MIC was determined as 1 µM in the assay with S. aureus (ATCC 6538) (ATCC 6538); 0.5 µM in the assay with MDR-A. baumannii (AB-29) (MDR- (AB-29)); 2 µM against A. baumannii (309-14) (309-14); 2 µM against E. coli (ATCC 25922) (ATCC 25922); 16 µM with MDR-E. coli (LZ-7) (MDR- (LZ-7)). Also, the “MIC after treatment, KCl” value in the assay with E. coli was 2 µM; against S. aureus, 1 µM. In addition, the “MIC after treatment, NaCl” value with E. coli stood at 2 µM; against S. aureus, 1 µM. The “MIC after treatment, Serum” value in the assay with E. coli amounted to 2 µM; in the assay on S. aureus, 1 µM.
For the substance “FLALALIQEAIAKLK-NH2 [FA, Kassporin-KS1, reference compound]”, the “MIC, three prevalent pathogenic bacteria” value in [1] is greater than 32 µM. The MBC against S. aureus (ATCC 6538) (ATCC 6538), against MDR-A. baumannii (AB-29) (MDR- (AB-29)), against A. baumannii (309-14) (309-14), in the assay on E. coli (ATCC 25922) (ATCC 25922) and against MDR-E. coli (LZ-7) (MDR- (LZ-7)) was greater than 128 µM throughout. Moreover, the MIC in the assay on S. aureus (ATCC 6538) (ATCC 6538), against MDR-A. baumannii (AB-29) (MDR- (AB-29)), against A. baumannii (309-14) (309-14), in the assay with E. coli (ATCC 25922) (ATCC 25922) and against MDR-E. coli (LZ-7) (MDR- (LZ-7)) was greater than 32 µM in each case.
Consider FLKLRLWRRLLWKLK-NH2 [RR], for which the MBC in the assay on S. aureus (ATCC 6538) (ATCC 6538) is 2 µM; against MDR-A. baumannii (AB-29) (MDR- (AB-29)), 2 µM; against A. baumannii (309-14) (309-14), 1 µM; against E. coli (ATCC 25922) (ATCC 25922) it was 2 µM; against MDR-E. coli (LZ-7) (MDR- (LZ-7)) it was 8 µM. Besides, the MIC in the assay with S. aureus (ATCC 6538) (ATCC 6538) was 0.5 µM; against MDR-A. baumannii (AB-29) (MDR- (AB-29)) it was 0.5 µM; against A. baumannii (309-14) (309-14) it was 1 µM; in the assay on E. coli (ATCC 25922) (ATCC 25922), 0.5 µM; against MDR-E. coli (LZ-7) (MDR- (LZ-7)), 2 µM. Besides, the “MIC after treatment, KCl” value with E. coli and in the assay on S. aureus was 0.5 µM throughout. The “MIC after treatment, NaCl” value in the assay with E. coli was determined as 1 µM; in the assay on S. aureus it was 0.5 µM. In addition, the “MIC after treatment, Serum” value in the assay with E. coli and against S. aureus was 0.5 µM in each case.
Turning to FLKLRLWKKLLWKLK-NH2 [KK], the MBC in the assay on S. aureus (ATCC 6538) (ATCC 6538) was found to be 2 µM; against MDR-A. baumannii (AB-29) (MDR- (AB-29)), 1 µM; against A. baumannii (309-14) (309-14) it was 1 µM; against E. coli (ATCC 25922) (ATCC 25922), 4 µM; against MDR-E. coli (LZ-7) (MDR- (LZ-7)), 8 µM. Besides, the MIC is 0.5 µM with S. aureus (ATCC 6538) (ATCC 6538); 0.5 µM against MDR-A. baumannii (AB-29) (MDR- (AB-29)); 0.5 µM against A. baumannii (309-14) (309-14); 0.5 µM in the assay on E. coli (ATCC 25922) (ATCC 25922); 2 µM against MDR-E. coli (LZ-7) (MDR- (LZ-7)). The “MIC after treatment, KCl” value against E. coli and in the assay with S. aureus was 0.5 µM throughout. Also, the “MIC after treatment, NaCl” value with E. coli and in the assay with S. aureus was 1 µM each time. Further, the “MIC after treatment, Serum” value against E. coli and against S. aureus was 0.5 µM each time.
As to FLKLRLWRKLLWKLK-NH2 [RK], the “MIC, common pathogenic bacteria and MDR bacteria” value in assay [1] is reported as 0.25 to 2 µM. Also, the MBC against S. aureus (ATCC 6538) (ATCC 6538) was 1 µM; against MDR-A. baumannii (AB-29) (MDR- (AB-29)) it was 0.5 µM; against A. baumannii (309-14) (309-14), 0.5 µM; against E. coli (ATCC 25922) (ATCC 25922) it was 1 µM; against MDR-E. coli (LZ-7) (MDR- (LZ-7)), 4 µM. Besides, the minimal inhibitory concentration (MIC) was found to be 0.25 µM with S. aureus (ATCC 6538) (ATCC 6538); 0.25 µM against MDR-A. baumannii (AB-29) (MDR- (AB-29)); 0.5 µM against A. baumannii (309-14) (309-14); 0.25 µM with E. coli (ATCC 25922) (ATCC 25922); 2 µM in the assay on MDR-E. coli (LZ-7) (MDR- (LZ-7)). The “MIC after treatment, KCl” value against E. coli and against S. aureus was 0.25 µM throughout. The “MIC after treatment, NaCl” value against E. coli and against S. aureus was 0.25 µM each time. For the same substance, the “MIC after treatment, Serum” value against E. coli and against S. aureus was 0.25 µM in each case.
